According to publication PMC9320654 (Toxins, 2022):
Counter-ions that a name gives are not always drawn.

Legend:
[1] = Metabolic stability in cryopreserved hepatocytes, dog; format: in vitro ADME, beagle dog
Procedure: (§1) Hepatocyte metabolic stability was evaluated in cryopreserved hepatocytes from CD-1 mice (Lot#: EXR), Sprague Dawley rats (Lot#: OSQ), beagle dogs (Lot#: ZMB), cynomolgus monkeys (Lot#: KMS), and human donors (Lot#: AEL) obtained from Bioreclamation IVT, LLC (Shanghai, China). […] Samples were withdrawn from the reaction mixture at 0, 15, 30, 60, and 90 min and were quenched with stop solution (acetonitrile containing 200 ng/mL tolbutamide and 200 ng/mL labetalol as internal standards). A cocktail of 7-ethoxycoumarin (Lot#: I1825085) was used as the positive control for the assay. The analytical plates were sealed and stored at 4 °C until LC-MS/MS analysis.
(§2) The remaining percentages of test articles after incubation were calculated by the following equations:(7) %Remainingat Appointed Time=Peak Area Ratios of Test Article versus Internal Standard at Appointed Time/Peak Area Ratios of Test Article versus Internal Standard 0 min
(§3) We used the equation of first order kinetics to calculate T1/2 and CLint:
(§4) Equation of first-order kinetics:(8) Ct=C0·e^−k·t when Ct=1/2C0,T1/2=ln2/k=0.693/k (9) CLint hep=k/million cells per mL (10) CLint liver=CLint hep×Liver weight g/kg body weight×hepatocellularity

[2] = Metabolic stability in cryopreserved hepatocytes, human; format: in vitro ADME
Procedure: as §1, §2, §3, §4

[3] = Metabolic stability in cryopreserved hepatocytes, rat; format: in vitro ADME, Sprague Dawley rat
Procedure: as §1, §2, §3, §4

[4] = Metabolic stability in cryopreserved hepatocytes, monkey; format: in vitro ADME, cynomolgus monkey
Procedure: as §1, §2, §3, §4

[5] = Metabolic stability in cryopreserved hepatocytes, mouse; format: in vitro ADME, CD-1 mouse
Procedure: as §1, §2, §3, §4

[6] = Plasma stability, dog plasma; format: in vitro ADME; conditions: beagle
Procedure: (§5) The pooled frozen plasma was thawed in a water bath at 37 °C prior to the experiment. Plasma was centrifuged at 4000 rpm for 5 min, and the clots, if any, were removed. Using an Apricot automation workstation, blank plasma (98 μL/well) was added to six 96-well reaction plates (Blank, T0, T10, T30, T60, and T120). An Apricot automation workstation was used to add working solution (2 μL/well, 100 μM) to all reaction plates except the Blank plate (T0, T10, T30, T60, and T120). All reaction plates containing mixtures of compound and plasma were incubated at 37 °C in a water bath. At the end of the incubation, 400 μL of stop solution (200 ng/mL tolbutamide and 200 ng/mL labetalol in acetonitrile) was added to precipitate the protein, and the mixture was mixed thoroughly. Samples were then vortexed and centrifuged (20 min, 4000 rpm, 4 °C). After centrifugation, an Apricot automation workstation was used to transfer 50 μL of supernatant into 100 μL of HPLC water. […] Each bioanalysis plate was sealed and shaken for 10 min prior to LC-MS/MS analysis. The % remaining test compound after incubation in plasma was calculated using the following equation:(11) % Remaining= PAR at appointed incubation time/PAR at T0 time×100 where PAR is the peak area ratio of analyte versus internal standard (IS).
(§6) The appointed incubation time points are T0 (0 min), Tn (n = 0, 10, 30, 60, 120 min).

[7] = Plasma stability, rat plasma; format: in vitro ADME
Procedure: as §5, §6

[8] = Metabolite identification by LC-UV-MS^n in rat liver microsomes; format: in vitro ADME; set-up: key: +: metabolite was detected in liver microsomes; -: metabolite was detected in liver microsomes; conditions: BEA 10 µM, 37 °C, 60 min
Procedure: (§7) The positive control, 7-ethoxycoumarin (7-EC) at 10 µM, was run concurrently to assess Phase I metabolic activities in liver microsomes. […] After incubation, the samples were analyzed by LC-UV-MS (Table S7). The structures of the metabolites were proposed based on the interpretation of their MS and MS2 data. The results are presented in Table 6 and Figure 6. %Total=Peak Area of a Releted Component/Peak Area of Total Releted Component×100%

[9] = Metabolite identification by LC-UV-MS^n in dog liver microsomes; format: in vitro ADME; set-up: key: +: metabolite was detected in liver microsomes; -: metabolite was detected in liver microsomes; conditions: BEA 10 µM, 37 °C, 60 min
Procedure: as §7

[10] = Metabolite identification by LC-UV-MS^n in human liver microsomes; format: in vitro ADME; set-up: key: +: metabolite was detected in liver microsomes; -: metabolite was not detected in liver microsomes; conditions: BEA 10 µM, 37 °C, 60 min
Procedure: as §7

[11] = Metabolite identification by LC-UV-MS^n in mouse liver microsomes; format: in vitro ADME; set-up: key: +: metabolite was detected in liver microsomes; -: metabolite was detected in liver microsomes; conditions: BEA 10 µM, 37 °C, 60 min
Procedure: as §7

[12] = Metabolite identification by LC-UV-MS^n in monkey liver microsomes; format: in vitro ADME; set-up: key: +: metabolite was detected in liver microsomes; -: metabolite was not detected in liver microsomes; conditions: BEA 10 µM, 37 °C, 60 min
Procedure: as §7

[13] = Plasma stability, monkey plasma; format: in vitro ADME; conditions: cynomolgus
Procedure: as §5, §6

[14] = Plasma stability, human plasma; format: in vitro ADME
Procedure: as §5, §6

[15] = Plasma stability, mouse plasma; format: in vitro ADME
Procedure: as §5, §6

[16] = target: T1, CYP2C9 (Homo sapiens, UniProt P11712); format: in vitro ADME; conditions: CYP2C9 in HLM; positive control, final conc. 3 μM in Table S1
T1 construct: tissue Corning or Xenotech; host or cells: human liver microsomes (mixed gender)
T1 sequence (P11712 whole entry): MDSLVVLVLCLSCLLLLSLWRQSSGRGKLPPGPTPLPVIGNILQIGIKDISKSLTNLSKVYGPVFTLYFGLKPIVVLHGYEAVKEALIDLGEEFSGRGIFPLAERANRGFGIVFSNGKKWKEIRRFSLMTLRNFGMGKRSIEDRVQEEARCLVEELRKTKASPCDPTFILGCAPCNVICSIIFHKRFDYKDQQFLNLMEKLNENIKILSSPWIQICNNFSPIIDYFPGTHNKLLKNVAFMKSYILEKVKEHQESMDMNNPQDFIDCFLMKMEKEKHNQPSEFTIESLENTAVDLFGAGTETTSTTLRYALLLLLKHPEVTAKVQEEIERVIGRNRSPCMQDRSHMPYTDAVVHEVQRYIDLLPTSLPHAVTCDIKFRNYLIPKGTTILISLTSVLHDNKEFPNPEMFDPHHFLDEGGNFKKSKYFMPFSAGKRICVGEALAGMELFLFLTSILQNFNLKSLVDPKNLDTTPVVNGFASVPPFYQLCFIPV
Procedure: A mixture of microsomes and substrates for each CYP isozyme were prepared individually in 100 mM potassium phosphate buffer at pH 7.4. […] The reaction mixture was incubated for 10 min, followed by the addition of 20 μL of 10 mM NADPH solution. […] At the appropriate time point, we terminated the reaction by adding 400 µL of cold stop solution (200 ng/mL tolbutamide and labetalol in acetonitrile). The samples were centrifuged at 4000 rpm for 20 min to precipitate the protein, and then detected by LC/MS/MS. XL fit was used to plot the percent of vehicle control versus the test compound concentrations and for nonlinear regression analysis of the data. The IC50 values were determined using 3- or 4-parameter logistic equations.

[17] = Metabolic stability in liver microsomes, RLM; format: in vitro ADME, Sprague Dawley rat
Procedure: (§8) All incubations were performed at 37 °C in 100 mM potassium phosphate buffer in an orbital incubator. Various nicotinamide adenine dinucleotide phosphate (NADPH) concentrations were tried to optimize the method. […]. The positive control compound testosterone was incubated in parallel with the BEA samples. Each bioanalysis plate was sealed and shaken for 10 min prior to LC-MS/MS analysis (Table S6). […]

[18] = Metabolic stability in liver microsomes, DLM; format: in vitro ADME, beagle dog
Procedure: as §8

[19] = Metabolic stability in liver microsomes, MLM; format: in vitro ADME, CD-1 mouse
Procedure: (§9) All incubations were performed at 37 °C in 100 mM potassium phosphate buffer in an orbital incubator. Various nicotinamide adenine dinucleotide phosphate (NADPH) concentrations were tried to optimize the method. […] Samples were withdrawn from the reaction mixture at different times (5, 15, 30, 45, and 60 min), and the reaction was terminated using acetonitrile. […] Each bioanalysis plate was sealed and shaken for 10 min prior to LC-MS/MS analysis (Table S6).

[20] = Metabolic stability in liver microsomes, CLM; format: in vitro ADME, cynomolgus monkey
Procedure: as §9

[21] = Plasma protein binding (HTdialysis equilibrium dialysis), monkey plasma; format: in vitro ADME, cynomolgus monkey; conditions: pH 7.4, read-out: Fu (%), unbound fraction
[22] = Plasma protein binding (HTdialysis equilibrium dialysis), dog plasma; format: in vitro ADME; conditions: beagle, pH 7.4, read-out: Fu (%), unbound fraction
[23] = Plasma protein binding (HTdialysis equilibrium dialysis), mouse plasma; format: in vitro ADME, CD-1 mouse; conditions: CD-1, pH 7.4, read-out: Fu (%), unbound fraction
[24] = Plasma protein binding (HTdialysis equilibrium dialysis), rat plasma; format: in vitro ADME; conditions: Sprague Dawley, pH 7.4, read-out: Fu (%), unbound fraction
[25] = tested on: CYP3A4/5; conditions: ref 20 (Li Mei's group); cited from earlier work
[26] = 120 min, read-out: Remaining % (T = 120 min)

For `CCOc1ccc2ccc(=O)oc2c1` [7-Ethoxycoumarin], the half-life at 1 μM ([1]; beagle, cryopreserved hepatocytes in suspension, dog hepatocytes, 0.5 × 10^6 cells/mL, 1 μM, n = 2) was 5.4 min, the CLint scaled at 1 μM ([1]; beagle, cryopreserved hepatocytes in suspension, scaled from dog hepatocyte CLint, read-out: CLint (liver)) was 1760 mL/min/kg and the “CLint (hep) (μL/min/10^6)” value ([1]; dog hepatocytes) was 256.4 μL/min/10^6. For the same compound, the “Remaining % (T = 90 min)” value ([1]; dog hepatocytes, 90 min) was 0.0%, the half-life at 1 μM ([2]; cryopreserved hepatocytes (suspension), human hepatocytes, 0.5 × 10^6 cells/mL, 1 μM, n = 2) was 41.6 min and the remaining at 1.5 h, 1 μM ([2]; cryopreserved hepatocytes in suspension, human hepatocytes, 90 min, read-out: Remaining % (T = 90 min)) was 21.9%. For the same compound, the CLint scaled at 1 μM ([2]; cryopreserved hepatocytes in suspension, scaled from human hepatocyte CLint, read-out: CLint (liver)) was 92.6 mL/min/kg, the “CLint (hep) (μL/min/10^6)” value ([2]; human hepatocytes) was 33.3 μL/min/10^6 and the half-life at 1 μM ([3]; Sprague Dawley, cryopreserved hepatocytes (suspension), rat hepatocytes, 0.5 × 10^6 cells/mL, 1 μM, n = 2) was 18.2 min. For the same compound, the remaining at 1.5 h, 1 μM ([3]; Sprague Dawley, cryopreserved hepatocytes in suspension, rat hepatocytes, 90 min, read-out: Remaining % (T = 90 min)) was 2.1%, the CLint scaled at 1 μM ([3]; Sprague Dawley, cryopreserved hepatocytes in suspension, scaled from rat hepatocyte CLint, read-out: CLint (liver)) was 356 mL/min/kg and the “CLint (hep) (μL/min/10^6)” value ([3]; rat hepatocytes) was 76.0 μL/min/10^6. The half-life at 1 μM ([4]; cryopreserved hepatocytes in suspension, monkey hepatocytes, 0.5 × 10^6 cells/mL, 1 μM, n = 2) was 13.6 min, the CLint scaled at 1 μM ([4]; cynomolgus monkey, cryopreserved hepatocytes in suspension, scaled from monkey hepatocyte CLint, read-out: CLint (liver)) was 367 mL/min/kg and the “CLint (hep) (μL/min/10^6)” value ([4]; monkey hepatocytes) was 102.0 μL/min/10^6. For the same compound, the “Remaining % (T = 90 min)” value ([4]; monkey hepatocytes, 90 min) was 0.0%, the half-life at 1 μM ([5]; CD-1, cryopreserved hepatocytes (suspension), mouse hepatocytes, 0.5 × 10^6 cells/mL, 1 μM, n = 2) was less than 7.5 min and the CLint scaled at 1 μM ([5]; CD-1, cryopreserved hepatocytes in suspension, scaled from mouse hepatocyte CLint, read-out: CLint (liver)) was greater than 2200 mL/min/kg. The “CLint (hep) (μL/min/10^6)” value ([5]; mouse hepatocytes) was greater than 184.8 μL/min/10^6 and the “Remaining % (T = 90 min)” value ([5]; mouse hepatocytes, 90 min) was 0.0%.
Work on `CC(=O)Oc1ccc(C(c2ccc(OC(C)=O)cc2)c2ccccn2)cc1` [Bisacodyl] yielded a half-life at 2 μM ([6]; 37 °C, n = 2) of 7.2 min and a remaining at 2 h, 2 μM [6, 26] of 0%.
With `CCOC(=O)[C@H](CCc1ccccc1)N[C@@H](C)C(=O)N1CCC[C@H]1C(=O)O.O=C(O)/C=C\C(=O)O` [Enalapril maleate salt] the “T1/2” value ([7]; 37 °C, n = 2) was 12.8 min and the “Remaining % (T = 120 min)” value ([7]; 120 min) was 0.2%.
For `CC(C)[C@H]1OC(=O)[C@H](Cc2ccccc2)N(C)C(=O)[C@@H](C(C)C)OC(=O)[C@H](Cc2ccccc2)N(C)C(=O)[C@@H](C(C)C)OC(=O)[C@H](Cc2ccccc2)NC1=O` [M15], the “Detected in liver microsomes: Rat” value [8] was “+”, the “Detected in liver microsomes: Dog” value [9] was “+” and the “Detected in liver microsomes: Human” value [10] was “+”. For the same compound, the “Detected in liver microsomes: Mouse” value [11] was “+” and the “Detected in liver microsomes: Monkey” value [12] was “+”.
For `CCN(CC)CCOC(=O)c1ccc(N)cc1` [Procaine Hydrochloride], the half-life at 2 μM ([13]; 37 °C, n = 2) was 4.4 min and the remaining at 2 h, 2 μM [13, 26] was 0%.
Compound `CC(C)[N+](C)(CCOC(=O)C1c2ccccc2Oc2ccccc21)C(C)C` [Propantheline bromide] has a half-life at 2 μM ([14]; 37 °C, n = 2) of 10.3 min, a remaining at 2 h, 2 μM [14, 26] of 0% and a half-life at 2 μM ([15]; CD-1, 37 °C, n = 2) of 36.6 min. The remaining at 2 h, 2 μM ([15]; CD-1, 120 min, read-out: Remaining % (T = 120 min)) was 9.7%.
With `Nc1ccc(S(=O)(=O)Nc2ccnn2-c2ccccc2)cc1` [Sulfaphenazole] the “Activity (% VC)” value [16] was 20.0 % VC.
For `C[C@]12CC[C@H]3[C@@H](CCC4=CC(=O)CC[C@@]43C)[C@@H]1CC[C@@H]2O` [Testosterone], the “Remaining % (T = 60 min)” value ([17]; RLM, 60 min) was 0.0%, the microsomal CLint at 1 μM ([17]; Sprague Dawley, rat, microsomes, RLM, read-out: CLint(mic)) was 1370 µL/min/mg and the CLint scaled at 1 μM ([17]; Sprague Dawley, rat, microsomes, scaled from RLM CLint(mic)) was 2470 mL/min/kg. The “T1/2” value ([18]; DLM, 1 μM, NADPH, n = 2) was 20.0 min, the microsomal CLint at 1 μM ([18]; beagle, dog, microsomes, DLM, read-out: CLint(mic)) was 69.2 µL/min/mg and the CLint scaled at 1 μM ([18]; beagle, dog, microsomes, scaled from DLM CLint(mic)) was 99.6 mL/min/kg. It also gave a half-life at 1 μM ([19]; CD-1, mouse, liver microsomes, MLM, 1 μM, NADPH, n = 2) of 3.9 min, a microsomal CLint at 1 μM ([19]; CD-1, mouse, liver microsomes, MLM, read-out: CLint(mic)) of 359 µL/min/mg and a CLint scaled at 1 μM ([19]; CD-1, mouse, liver microsomes, scaled from MLM CLint(mic)) of 1420 mL/min/kg. For the same compound, the “Remaining % (T = 60 min)” value ([19]; MLM, 60 min) was 0.0%, the “Remaining % (T = 60 min)” value ([20]; CLM, 60 min) was 0.0% and the half-life at 1 μM ([20]; cynomolgus monkey, liver microsomes, CLM, 1 μM, NADPH, n = 2) was 5 min. For the same compound, the microsomal CLint at 1 μM ([20]; cynomolgus monkey, liver microsomes, CLM, read-out: CLint(mic)) was 277 µL/min/mg and the CLint scaled at 1 μM ([20]; cynomolgus monkey, liver microsomes, scaled from CLM CLint(mic)) was 374 mL/min/kg.
`CC(=O)CC(c1ccccc1)c1c(O)c2ccccc2oc1=O` (stereo not shown) [warfarin] showed a fraction unbound at 5 h [21] of 0.0084, a fraction unbound at 5 h [22] of 0.0246 and a fraction unbound at 5 h [23] of 0.0271. It also gave a fraction unbound at 5 h [24] of 0.0052.
In the case of Beauvericin, the “Inhibition mechanism, CYP3A4” value [25] is given as “mix-type”.
